In US10766865B2, “PKM2 modulators and methods for their use” (TOLERO PHARMACEUTICALS, INC., priority 2012, dated 2020):

How the values were obtained:
Assay in all cases: Cell line sensitivity (viability, ATPlite)
Format in all cases: cell-based
HepG2 = details: Homo sapiens; HepG2, Liver; BME media, 72 hours; read-out: Sensitivity to Example 1 (IC50)
Procedure: (§1) Viability effect of Example 1 against a subset of lung carcinoma cell lines was determined as follows. Cells were seeded at 1500 cells per well in 384-well plates in BME media, and compound was added in 0.1% DMSO 18 hours later. Viability was determined by ATPlite assay after 72 hours. (See FIG. 4C).
(§2) Example 1 was tested against an expanded panel of cell lines according to the above procedure.

ACHN = details: Homo sapiens, Kidney, BME media, 72 hours, read-out: Sensitivity to Example 1 (IC50)
Procedure: as §1, §2

Malme3M = details: Homo sapiens, Malme-3M, Melanoma, BME media, 72 hours, read-out: Sensitivity to Example 1 (IC50)
Procedure: as §1, §2

MDA-MB453 = details: Homo sapiens, MDA-MB-453; MDA-MB453, Breast; BME media, 72 hours; read-out: Sensitivity to Example 1 (IC50)
Procedure: as §1, §2

Caki-1 = details: Homo sapiens; Caki-1, Kidney; BME media, 72 hours; read-out: Sensitivity to Example 1 (IC50)
Procedure: as §1, §2

Hs766T = details: Pancreatic, BME media, 72 hours, read-out: Sensitivity to Example 1 (IC50)
Procedure: as §1, §2

H1299 = details: Homo sapiens, NCI-H1299; H1299, Lung; BME media, 72 hours; read-out: Sensitivity to Example 1 (IC50)
Procedure: as §1, §2

HT1080 = details: Homo sapiens, HT-1080; HT1080, Sarcoma; BME media, 72 hours; read-out: Sensitivity to Example 1 (IC50)
Procedure: as §1, §2

A172 = details: Homo sapiens, A 172; A172, Brain; BME media, 72 hours; read-out: Sensitivity to Example 1 (IC50)
Procedure: as §1, §2

Du145 = details: Homo sapiens, DU-145; Du145, Prostate; BME media, 72 hours; read-out: Sensitivity to Example 1 (IC50)
Procedure: as §1, §2

FaDu = details: Homo sapiens, Head/Neck, BME media, 72 hours, read-out: Sensitivity to Example 1 (IC50)
Procedure: as §1, §2

SW480 = details: Homo sapiens; SW480, Colon; BME media, 72 hours; read-out: Sensitivity to Example 1 (IC50)
Procedure: as §1, §2

Capan1 = details: Homo sapiens, CAPAN-1; Capan1, Pancreatic; BME media, 72 hours; read-out: Sensitivity to Example 1 (IC50)
Procedure: as §1, §2

HCT15 = details: Homo sapiens, HCT-15; HCT15, Colon; BME media, 72 hours; read-out: Sensitivity to Example 1 (IC50)
Procedure: as §1, §2

22RV1 = details: Homo sapiens; 22RV1, Prostate; BME media, 72 hours; read-out: Sensitivity to Example 1 (IC50)
Procedure: as §1, §2

Gist882 = details: Homo sapiens; Gist882, GIST; BME media, 72 hours; read-out: Sensitivity to Example 1 (IC50)
Procedure: as §1, §2

NCI-H522 = details: Homo sapiens; NCI-H522, Lung; BME media, 72 hours; read-out: Sensitivity to Example 1 (IC50)
Procedure: as §1, §2

PC3 = details: Homo sapiens, PC-3; PC3, Prostate; BME media, 72 hours; read-out: Sensitivity to Example 1 (IC50)
Procedure: as §1, §2

Panc-1 = details: Homo sapiens; Panc-1, Pancreatic; BME media, 72 hours; read-out: Sensitivity to Example 1 (IC50)
Procedure: as §1, §2

SW620 = details: Homo sapiens, SW-620; SW620, Colon; BME media, 72 hours; read-out: Sensitivity to Example 1 (IC50)
Procedure: as §1, §2

A498 = details: Homo sapiens; A498, Kidney; BME media, 72 hours; read-out: Sensitivity to Example 1 (IC50)
Procedure: as §1, §2

HT29 = details: Homo sapiens, HT-29; HT29, Colon; BME media, 72 hours; read-out: Sensitivity to Example 1 (IC50)
Procedure: as §1, §2

Skov3 = details: Homo sapiens, SK-OV-3; Skov3, Ovarian; BME media, 72 hours; read-out: Sensitivity to Example 1 (IC50)
Procedure: as §1, §2

MCF7 = details: Homo sapiens; MCF7, Breast; BME media, 72 hours; read-out: Sensitivity to Example 1 (IC50)
Procedure: as §1, §2

Capan2 = details: Homo sapiens, Capan-2; Capan2, Pancreatic; BME media, 72 hours; read-out: Sensitivity to Example 1 (IC50)
Procedure: as §1, §2

Detroit562 = details: Homo sapiens, Detroit 562; Detroit562, Head/Neck; BME media, 72 hours; read-out: Sensitivity to Example 1 (IC50)
Procedure: as §1, §2

RKO = details: Homo sapiens, Colon, BME media, 72 hours, read-out: Sensitivity to Example 1 (IC50)
Procedure: as §1, §2

NCI-H647 = details: Homo sapiens; NCI-H647, Lung; BME media, 72 hours; read-out: Sensitivity to Example 1 (IC50)
Procedure: as §1, §2

IC50 (HepG2): > 30000 nM | IC50 (ACHN): 100 nM | IC50 (MDA-MB453): > 30000 nM | IC50 (H1299): 600 nM | IC50 (HT1080): 50 nM | IC50 (Du145): > 30000 nM | IC50 (SW480): 100 nM | IC50 (HCT15): > 30000 nM | IC50 (22RV1): > 30000 nM | IC50 (NCI-H522): > 30000 nM | IC50 (PC3): 100 nM | IC50 (Panc-1): 14 nM | IC50 (SW620): 200 nM | IC50 (HT29): 100 nM | IC50 (MCF7): > 30000 nM | IC50 (NCI-H647): > 30000 nM
Compound: O=C(c1cc(C(F)(F)F)n[nH]1)N(Cc1ccc(O)cc1F)CC1CCC1 [Example 1, N-(cyclobutylmethyl)-N-(2-fluoro-4-hydroxybenzyl)-3-(trifluoromethyl)-1H-pyrazole-5-carboxamide]
IC50 (Malme3M): > 30000 nM | IC50 (Caki-1): 80 nM | IC50 (Hs766T): 300 nM | IC50 (A172): 2300 nM | IC50 (FaDu): > 30000 nM | IC50 (Capan1): > 30000 nM | IC50 (Gist882): 800 nM | IC50 (A498): > 30000 nM | IC50 (Skov3): 8000 nM | IC50 (Capan2): > 30000 nM | IC50 (Detroit562): 3000 nM | IC50 (RKO): > 30000 nM
